Data reported in PMC9220351, “Evaluation of a Conformationally Constrained Indole Carboxamide as a Potential Efflux Pump Inhibitor in Pseudomonas aeruginosa” (Antibiotics, 2022).
pIC50: −log10 of the molar value.

What was measured:
[1] = Metabolic stability in rat liver microsomes; assay type: in vitro ADME
Protocol: The metabolic stability of TXA09155 was determined in human, mouse, and rat liver microsomes by Eurofins (St. Charles, MO, USA) using the substrate depletion method (in vitro half-life (t1/2) method). Quantification was performed by LC/MS/MS. In this assay, depletion of the parent compound is measured over time to determine the compound’s in vitro t1/2 and hepatic extraction ratios (ER). This is used to predict metabolic clearance. […] This assay utilizes electrophysiology measurements on the electric current passing through the hERG channel heterologously expressed in a stable CHO cell line. Channels are open by a hERG-specific voltage protocol, and the compound effects are directly characterized by their block of the hERG current. The assay is performed on an automated platform, Q-Patch.

[2] = system: P. aeruginosa ATCC 27853 inner membrane potential; test: DiOC2 (3) membrane polarization assay; assay type: cell-based, Pseudomonas aeruginosa; settings: 20 to 0.01 μM
Protocol: RND efflux pumps couple the influx of protons from the proton gradient across the inner membrane to the efflux of drugs and other molecules. […] The effect of TXA09155 on the proton gradient of P. aeruginosa was assessed with a fluorescence-based 3,3′-diethyloxacarbocyanine iodide [DiOC2 (3)] assay that was developed to measure membrane potential changes in Gram-negative bacteria. DiOC2 (3) is a positively charged fluorescent dye that accumulates within cells in a charge-dependent manner, shifting its fluorescence spectrum from green to red at high concentrations due to concentration-dependent dye stacking. […] Azithromycin and CCCP were used as […] controls, respectively.
P. aeruginosa membrane polarization assays were conducted as described previously using strain ATCC 27853. […] DiOC2 (3) fluorescence was recorded in a microplate reader using 450 nm excitation and 670 nm emission (for red fluorescence). Background correction for each concentration of each compound was obtained from reading the fluorescence of compounds in the resuspension buffer without cells. After background correction, fluorescence was normalized to that of the vehicle (DMSO) only. After a 30 min incubation at 37 °C, DiOC2 (3) fluorescence was recorded using a SpectraMax iD5 spectrophotometer (Molecular Devices, San Jose, CA, USA) following excitation at 450 nm. […]

CYP1A2 = CYP1A2 (Homo sapiens, UniProt P05177); test: CYP inhibition; assay type: in vitro ADME; settings: read-out: CYP Inhibition IC50, CYP 1A2
Chain of CYP1A2 (P05177 whole entry): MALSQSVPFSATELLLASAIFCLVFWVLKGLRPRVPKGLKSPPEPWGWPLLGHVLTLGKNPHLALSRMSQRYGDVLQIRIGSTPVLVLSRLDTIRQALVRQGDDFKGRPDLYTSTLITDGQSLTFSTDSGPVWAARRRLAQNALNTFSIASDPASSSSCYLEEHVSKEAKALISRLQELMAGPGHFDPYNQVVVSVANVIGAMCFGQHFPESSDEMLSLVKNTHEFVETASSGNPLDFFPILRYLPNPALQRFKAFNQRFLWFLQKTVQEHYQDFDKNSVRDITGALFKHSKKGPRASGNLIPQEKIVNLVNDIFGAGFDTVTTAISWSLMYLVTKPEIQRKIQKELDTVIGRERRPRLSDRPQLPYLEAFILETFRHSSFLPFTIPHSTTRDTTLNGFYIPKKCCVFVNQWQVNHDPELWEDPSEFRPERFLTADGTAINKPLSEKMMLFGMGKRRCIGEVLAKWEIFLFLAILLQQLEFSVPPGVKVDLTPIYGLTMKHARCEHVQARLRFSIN

Solubility at pH 7.4 = assay type: physicochemical; settings: pH 7.4, aqueous buffer
[3] = CellTiterGlo cytotoxicity assay; assay type: cell-based; settings: human, A549 cells
human RBCs = test: Hemolytic activity; assay type: cell-based; settings: 12.5 to 100 µM

Cl.NC[C@@H]1CN[C@H](CNC(=O)c2cc3ccc(-c4ccc(F)cc4)cc3[nH]2)C1 [TXA09155, N-(((2S,4R)-4-(aminomethyl)pyrrolidine-2-yl)methyl)-6-(4-fluorophenyl)-1H-indole-2-carboxamide hydrochloride salt]
HLM and RLM Metabolic Stability (RLM) [1]: >60% | membrane depolarization [2]: did not lead to membrane depolarization | pIC50 (CYP1A2): < 4.00 | solubility (Solubility at pH 7.4): > 155 µM | pIC50 [3]: < 4.40 | hemolytic activity (human RBCs): did not display hemolytic activity
